According to the supplement of paper PMC10307832:

Tests used:
Assay in all cases: relative viability (nuclei count vs DMSO), 5 days (fraction); higher = more cells survive
[1] = compound: CC(C)C[C@H](NC(=O)[C@H](Cc1ccccc1)NC(=O)c1cnccn1)B(O)O [Bortezomib] + CC(=O)c1c(C)c2cnc(Nc3ccc(N4CCNCC4)cn3)nc2n(C2CCCC2)c1=O [Palbociclib] (partner 0.5 µM)
Outline: (§1)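 Each reported value is a median over duplicate plates. It expresses relative viability: treated-well nuclei count divided by vehicle-well nuclei count. Lung cancer cell lines in 1536-well plates were dosed by pin tool a day after seeding, alone with one drug or with a fixed anchor-drug dose plus five library-drug doses (not always all listed) in √10 steps, and nuclei were counted after 5 days.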

[2] = compound: CC1=CC(=NN1)NC2=CC(=NC(=N2)/C=C/C3=CC=CC=C3)N4CCN(CC4)C + C[C@@H](Oc1cc(-c2cnn(C3CCNCC3)c2)cnc1N)c1c(Cl)ccc(F)c1Cl [Crizotinib] (partner 1 µM)
Outline: as §1

[3] = compound: CC1=CC(=NN1)NC2=CC(=NC(=N2)/C=C/C3=CC=CC=C3)N4CCN(CC4)C + C[C@]1(O)C[C@@H](c2nc(-c3ccc4ccc(-c5ccccc5)nc4c3)c3c(N)nccn32)C1 [Linsitinib] (partner 1 µM)
Outline: as §1

[4] = compound: COC1=CC(c2cc3ccccc3[nH]2)=N/C1=C\c1[nH]c(C)cc1C [Obatoclax] + CC(=O)c1c(C)c2cnc(Nc3ccc(N4CCNCC4)cn3)nc2n(C2CCCC2)c1=O [Palbociclib] (partner 0.5 µM)
Outline: as §1

| Cell Line | relative viability ([1]; first compound 0.0002 µM) | relative viability ([1]; first compound 0.000632 µM) | relative viability ([1]; first compound 0.002 µM) | relative viability ([1]; first compound 0.006325 µM) | relative viability ([1]; first compound 0.02 µM) | relative viability ([2]; first compound 0.08 µM) | relative viability ([2]; first compound 0.253 µM) | relative viability ([2]; first compound 0.8 µM) | relative viability ([2]; first compound 2.53 µM) | relative viability ([2]; first compound 8 µM) | relative viability ([3]; first compound 0.08 µM) | relative viability ([3]; first compound 0.253 µM) | relative viability ([3]; first compound 0.8 µM) | relative viability ([3]; first compound 2.53 µM) | relative viability ([3]; first compound 8 µM) | relative viability ([4]; first compound 0.01 µM) | relative viability ([4]; first compound 0.03162 µM) | relative viability ([4]; first compound 0.1 µM) | relative viability ([4]; first compound 0.3162 µM) | relative viability ([4]; first compound 1 µM) |
| --- | --- | --- | --- | --- | --- | --- | --- | --- | --- | --- | --- | --- | --- | --- | --- | --- | --- | --- | --- | --- |
| BEN | 0.443 | 0.461 | 0.489 | 0.445 | 0.236 | 0.881 | 1.09 | 0.804 | 0.675 | 0.167 | 0.953 | 0.955 | 0.96 | 0.76 | 0.194 | 0.467 | 0.477 | 0.429 | 0.462 | 0.44 |
| CAL-12T | 0.561 | 0.447 | 0.384 | 0.182 | 0.104 | 0.825 | 0.54 | 0.291 | 0.11 | 0.0934 | 0.756 | 0.69 | 0.979 | 0.49 | 0.214 | 0.445 | 0.495 | 0.426 | 0.176 | 0.0895 |
| COR-L23 | 0.308 | 0.274 | 0.183 | 0.0534 | 0.0546 | 0.696 | 0.676 | 0.41 | 0.159 | 0.0747 | 0.868 | 0.809 | 0.839 | 0.173 | 0.0756 | 0.306 | 0.303 | 0.228 | 0.128 | 0.122 |
| COR-L 105 | 0.439 | 0.381 | 0.345 | 0.378 | 0.355 | 0.897 | 0.731 | 0.445 | 0.222 | 0.191 | 0.815 | 1.08 | 1.01 | 0.331 | 0.192 | 0.408 | 0.441 | 0.375 | 0.361 | 0.341 |
| Calu-6 | – | – | – | – | – | 0.735 | 0.622 | 0.345 | 0.197 | 0.101 | 0.98 | 0.997 | 0.883 | 0.441 | 0.158 | – | – | – | – | – |
